No end group written: not given here.
Assays:
[1] = Computationally predicted from Kunitz inhibitor protein; ref [21]; cited from earlier work
Excerpt: Table 4 Reported AMPs from Schistosoma mansoni. | column: Activity reported

[2] = test system: A. baumannii DSM 30007; assay: Minimum inhibitory concentration, microbroth dilution; format: cell-based, Acinetobacter baumannii; conditions: cation-adjusted MHB, 5x10^5 CFU/ml, 37°C, 18–24 h, visible growth; for MIC A. baumannii DSM 30007 (-): peptides 512–0.25μg/ml, >70% purity (Cecropin P1 >95%), Ciprofloxacin 32–0.02μg/ml
Method: (§1) Prioritised helminth AMP-LPs were synthesised at >70% purity (Genosphere Biotechnologies). […] Peptides and control antibiotics [Ciprofloxacin (for gram-negative species; Sigma-Aldrich) and Vancomycin hydrochloride (for gram-positive species; Sigma-Aldrich)] were dissolved in sterile ultrapure water at a concentration of 5.12mg/ml. Minimum inhibitory concentrations (MICs) were determined for gram-positive and gram-negative bacterial isolates (see Table 3 for species) using microbroth dilution assays as described previously. Briefly, a single colony from each bacterial species was inoculated in cation-adjusted Mueller Hinton Broth (MHB) and grown for 18–24 hours at 37°C with shaking (225rpm) before being adjusted to a final bacterial density of 5x10^5 colony forming units (CFU) per ml. Peptides and Vancomycin hydrochloride were diluted using sterile MHB in sterile U-bottom 96 well polypropylene microplates (Greiner Bio One, UK) to give a concentration gradient ranging from 512–0.25μg/ml. Ciprofloxacin was further diluted in sterile MHB to give a concentration gradient ranging from 32–0.02μg/ml. Microplates were incubated at 37°C for 18–24 hours. Plates were assessed for visible growth and the MIC was defined as the lowest concentration of peptide or antibiotic that inhibited visible growth of a bacterial culture after an 18–24-hour incubation. MIC data were validated by positive and negative control antibiotic MIC data for each bacterial isolate.

[3] = test system: E. coli K12; assay: as above; format: cell-based, Escherichia coli; conditions: cation-adjusted MHB, 5x10^5 CFU/ml, 37°C, 18–24 h, visible growth; for MIC E. coli K12 (-): peptides 512–0.25μg/ml, >70% purity (Cecropin P1 >95%), Ciprofloxacin 32–0.02μg/ml
Method: as §1

[4] = test system: P. aeruginosa PA01; assay: as above; format: cell-based, Pseudomonas aeruginosa; conditions: cation-adjusted MHB, 5x10^5 CFU/ml, 37°C, 18–24 h, visible growth; for MIC P. aeruginosa PA01 (-): peptides 512–0.25μg/ml, >70% purity (Cecropin P1 >95%), Ciprofloxacin 32–0.02μg/ml
Method: as §1

[5] = test system: E. faecalis JH2-2; assay: microbe, parasite or virus in culture; format: cell-based, Enterococcus faecalis
Method: as §1

[6] = test system: S. aureus RN4220; assay: microbe, parasite or virus in culture; format: cell-based, Staphylococcus aureus; conditions: Methicillin-Sensitive, microbroth dilution, cation-adjusted MHB, 5x10^5 CFU/ml, 37°C, 18–24 h, visible growth; for MIC S. aureus RN4220 (+): peptides and Vancomycin hydrochloride 512–0.25μg/ml, peptides >70% purity (Cecropin P1 >95%)
Method: as §1

[7] = test system: S. aureus EMRSA-15; assay: microbe, parasite or virus in culture; format: cell-based, Staphylococcus aureus; conditions: Methicillin-resistant, microbroth dilution, cation-adjusted MHB, 5x10^5 CFU/ml, 37°C, 18–24 h, visible growth; for MIC S. aureus EMRSA-15 (+): peptides and Vancomycin hydrochloride 512–0.25μg/ml, peptides >70% purity (Cecropin P1 >95%)
Method: as §1

[8] = test system: gram-positive and gram-negative bacterial isolates; format: cell-based
Method: as §1, with “MIC data were validated by positive and negative control antibiotic MIC data for each bacterial isolate.” left out

[9] = microbroth dilution, cation-adjusted MHB, 5x10^5 CFU/ml, 37°C, 18–24 h, visible growth, peptides and Vancomycin hydrochloride 512–0.25μg/ml, peptides >70% purity (Cecropin P1 >95%)

| Substance | MIC A. baumannii DSM 30007 (-) [2] | MIC E. coli K12 (-) [3] | MIC P. aeruginosa PA01 (-) [4] | MIC E. faecalis JH2-2 (+) [5, 9] | MIC S. aureus RN4220 (+) [6] | MIC S. aureus EMRSA-15 (+) [7] | further results |
| --- | --- | --- | --- | --- | --- | --- | --- |
| GILDIKNKVSNLFKKIKGEK [Schistocin-1] |  |  |  |  |  |  | Activity reported (all activity) [1]: All activity >100μM |
| GILDIKNKVSNLF [Schistocin-3] |  |  |  |  |  |  | Activity reported [1]: Antibacterial Antifungal |
| GILDIKNKVSNLFKKIK [Schistocin-2] |  |  |  |  |  |  | Activity reported [1]: Antifungal |
| GTFWKAVGAGALIGGGAALLSKAFK[nh2] [nAMP-LP-18, nematode AMP-like peptide identified in four Meloidogyne species] | / (/ indicates that there was no activity at the highest concentration of peptide used (512μg/ml)) | / (/ indicates that there was no activity at the highest concentration of peptide used (512μg/ml)) | / (/ indicates that there was no activity at the highest concentration of peptide used (512μg/ml)) | 64 µg/mL | 64 µg/mL | 64 µg/mL | MIC E. faecalis JH2-2 (+), μM in brackets ([5]; microbroth dilution, cation-adjusted MHB, 5x10^5 CFU/ml, 37°C, 18–24 h, visible growth): 27 µM; MIC S. aureus RN4220 (+), μM in brackets [6]: 27 µM; MIC S. aureus EMRSA-15 (+), μM in brackets [7]: 27 µM |
| GLGKSLKKIGRKIDKGFRKIRDRAGASVSFGSGQKPQGSIQISPV-NH2 [nAMP-LP-617] | 8 µg/mL | 4 µg/mL | 32 µg/mL | / (/ indicates that there was no activity at the highest concentration of peptide used (512μg/ml)) | / (/ indicates that there was no activity at the highest concentration of peptide used (512μg/ml)) | / (/ indicates that there was no activity at the highest concentration of peptide used (512μg/ml)) | MIC ([2]; read-out: MIC A. baumannii DSM 30007 (-), μM in brackets): 2 µM; MIC ([3]; read-out: MIC E. coli K12 (-), μM in brackets): 1 µM; MIC ([4]; read-out: MIC P. aeruginosa PA01 (-), μM in brackets): 7 µM; MIC against gram-negative species screened [8]: 4 to 32 µg/mL |
| ISKFLKGAAIAGGLAVAGAVAYKAYKNYKKNQEQQAAATGRK [nAMP-LP-11, nematode AMP-like peptide selected for synthesis and MIC screening] | / (/ indicates that there was no activity at the highest concentration of peptide used (512μg/ml)) | / (/ indicates that there was no activity at the highest concentration of peptide used (512μg/ml)) | / (/ indicates that there was no activity at the highest concentration of peptide used (512μg/ml)) | / (/ indicates that there was no activity at the highest concentration of peptide used (512μg/ml)) | / (/ indicates that there was no activity at the highest concentration of peptide used (512μg/ml)) | / (/ indicates that there was no activity at the highest concentration of peptide used (512μg/ml)) |  |
| GFGKWVKKKWGSVRKGASKLVKGVKKVFPKKGIPIIRYERRF [nAMP-LP-249] |  |  |  |  |  |  | MIC E. faecalis JH2-2 (+) ([5]; JH2-2): 16 µg/mL; MIC against gram-negative species screened [8]: 8 µg/mL |

From PMC10414684, “Novel integrated computational AMP discovery approaches highlight diversity in the helminth AMP repertoire” (PLOS Pathogens, 2023)
